Data reported in US9555053B2, “Use of oligosaccharide compounds for the prevention and treatment of pathological scars” (LABORATOIRES URGO, priority 2011, dated 2017).

Assays:
Format in all cases: cell-based
[1] = tested on: α-SMA expression in normal human dermal fibroblasts (NHDFs); assay: Inhibition of TGF-β-induced differentiation of fibroblasts into myofibroblasts: α-SMA expression by quantitative RT-PCR and Western blot; details: NHDF cultures, TGF-β 10 ng/ml, KSOS 2 mg/ml, D4
Procedure: (§1) Cultures of normal human dermal fibroblasts (NHDFs) were prepared in DMEM/F12 culture medium (sold by the company Invitrogen) supplemented with 10% of fetal calf serum (sold by the company Invitrogen), with 5 μg/ml of insulin (sold by the company Promokine) and with 1 ng/ml of bFGF (sold by the company Promokine).
(§2) For this, the NHDF cultures were placed in a P100 dish coated with collagen at 5 μg/ml in DMEM/F12 medium supplemented with 10% of fetal calf serum and supplemented with 10 ng/ml of TGF-β(sold by the company Promocell), which is a growth factor that controls cell proliferation and differentiation (differentiated control in FIG. 1).
(§3) A nondifferentiated control was also prepared using cultures in DMEM/F12 supplemented with 10% calf serum without TGF-β.
(§4) The KSOS was added to the control and differentiated-control cultures to determine its effect on differentiation, in a proportion of 2 mg/ml.
(§5) The results were analyzed after 4 days of culture.
For the measurement of the inhibitory effect of the compound according to the invention, KSOS was added at 2 mg/ml to the cultures undergoing differentiation. • By quantitative RT-PCR: the mRNA was extracted using the Trizol, chloroform and isopropanol method. • By the Western blot method: total cell extracts were prepared and a Western blot was carried out. […]

[2] = tested on: collagen lattices seeded with normal human dermal fibroblasts (NHDFs); assay: Collagen lattice retraction (area of collagen lattices seeded with NHDFs); details: for % relative to the control: lattice area relative to control without dressing
Procedure: The collagen lattices were obtained by seeding 0.8×10^6 normal human dermal fibroblasts (NHDFs) in a gel of collagen type I with a final concentration of 1.3 mg/ml.
A dressing (sold under the trade name Urgotul Start) comprising 7.5% of the potassium salt of sucrose octasulfate was applied to the surface of the collagen lattices.
A control series, without dressing, was carried out in order to evaluate the normal contraction of the collagen gel by the seeded NHDFs.
Likewise, a positive control was carried out by adding TGF-β at a concentration of 10 ng/ml in order to visualize the strong contraction induced by the NHDFs highly differentiated into myofibroblasts.
The incubation was maintained up to 7 days.
The effects of the potassium salt of sucrose octasulfate on the retraction of the collagen lattices was observed by means of photographic analysis (FIG. 2) and image analysis measurement of the area of the lattices once contracted.

[3] = tested on: normal human dermal fibroblasts (NHDFs); assay: Differentiation of fibroblasts into myofibroblasts: α-SMA immunofluorescence and counting of differentiated cells; details: NHDF cultures, TGF-β 10 ng/ml, KSOS 2 mg/ml, 4 days of culture
Procedure: as §1, §2, §3, §4, §5
The cells were fixed with 4% formaldehyde and permeabilized with Triton. The immunolabeling is carried out using DAPI staining (which gives a blue color) for the cell nuclei, a rabbit anti-α-SMA antibody and an anti-rabbit secondary antibody coupled to Cys3 (sold by Promega).
The number of differentiated cells over the total number of cells is determined by cell counting. […]

Compound	α-SMA expression (mRNA by quantitative RT-PCR, protein by Western blot) [1]	Average of the areas ([2]; Day 1) [mm^2]	% relative to the control ([2]; Day 1) [%]	Average of the areas ([2]; Day 4) [mm^2]	% relative to the control ([2]; Day 4) [%]	Average of the areas ([2]; Day 7) [mm^2]	% relative to the control ([2]; Day 7) [%]	differentiation of fibroblasts into myofibroblasts (differentiated cells expressing α-SMA, immunofluorescence) [3]	contraction of the collagen lattices (in words) ([2]; between day 1 and day 7)
TGF-β	induction of α-SMA expression	217.3	95	145.9	76	97	56		
O=S(=O)([O-])OC[C@H]1O[C@@](COS(=O)(=O)[O-])(O[C@H]2O[C@H](COS(=O)(=O)[O-])[C@@H](OS(=O)(=O)[O-])[C@H](OS(=O)(=O)[O-])[C@H]2OS(=O)(=O)[O-])[C@@H](OS(=O)(=O)[O-])[C@@H]1OS(=O)(=O)[O-].[K+].[K+].[K+].[K+].[K+].[K+].[K+].[K+] [KSOS, potassium salt of sucrose octasulfate]	inhibition of this induction							inhibition of the differentiation	limits the contraction of the collagen lattices
